Source: ChEMBL document CHEMBL2150913, “Novel Benzoisoxazole as Partial Agonist of the 5-HT4 Receptor: Patent Highlight” (ACS Med Chem Lett, 2012)

Legend:
[1] = tested on: Brain; assay: AUC in rat brain at 5 mg/kg, sc; type: ADME, organism-based; parameters: dose 5 mg/kg, route subcutaneous; conditions: in vivo
[2] = tested on: Plasma; assay: AUC in rat plasma at 5 mg/kg, sc; type: ADME, organism-based; parameters: dose 5 mg/kg, route subcutaneous; conditions: in vivo
[3] = Cytotoxicity against human THLE cells assessed as cell health and cell depletion; type: cell-based

AUC [1]: 1790 ng·h/g
AUC [2]: 1760 ng·h/g
SMILES: OC1(CN2CCC(COc3noc4cccc(O[C@@H]5CCOC5)c34)CC2)CCOCC1 [PF-04995274]
Activity [3]: 300 µM
